According to PubChem BioAssay (NCI):
“And” between values parts separate entries of the source, which are not always exact repeats. Identical values can stand only once.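 All cell lines were grown in 96-well plates and treated with compound for 48 hours. GI50 marks 50% less growth. TGI: total growth inhibition.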

How the values were obtained:
Test in all cases: DTP human tumour cell line panel, 48 h
SW-620 colon = tested on: SW-620 colon
M14 melanoma = tested on: M14 melanoma
DU-145 prostate = tested on: DU-145 prostate
SF-295 CNS = tested on: SF-295 CNS
NCI/ADR-RES ovarian = tested on: NCI/ADR-RES ovarian
IGROV1 ovarian = tested on: IGROV1 ovarian
OVCAR-8 ovarian = tested on: OVCAR-8 ovarian
COLO 205 colon = tested on: COLO 205 colon
A498 renal = tested on: A498 renal
TK-10 renal = tested on: TK-10 renal

Compound	GI50 (SW-620 colon)	TGI (SW-620 colon) [µM]	GI50 (M14 melanoma)	TGI (M14 melanoma) [µM]	GI50 (DU-145 prostate)	TGI (DU-145 prostate) [µM]	GI50 (SF-295 CNS)	TGI (SF-295 CNS)	GI50 (NCI/ADR-RES ovarian)	TGI (NCI/ADR-RES ovarian)	GI50 (IGROV1 ovarian)	TGI (IGROV1 ovarian) [µM]	GI50 (OVCAR-8 ovarian)	TGI (OVCAR-8 ovarian) [µM]	GI50 (COLO 205 colon)	TGI (COLO 205 colon)	GI50 (A498 renal)	TGI (A498 renal)	GI50 (TK-10 renal)	TGI (TK-10 renal)
COc1ccc(Oc2ccccc2NC(=O)CNC(=O)c2cccc3ccccc23)cc1	0.678 µM	> 25	0.545 µM	> 25	1.02 µM	> 25	0.402 µM	> 25 µM	0.427 µM	> 25 µM	1.57 µM	> 25	1.15 µM	> 25	0.64 µM	2.04 µM	0.564 µM	10.4 µM	2.15 µM	> 25 µM
Nc1n[nH]c(N)c1N=Nc1ccc(O)cc1	26.3 µM	84.8	15.9 µM	> 100	17 µM	62.5	23.3 µM	82.5 µM	22.6 µM	92.4 µM	20.6 µM	81.4	18 µM	> 100	18.9 µM	54.2 µM	18.2 µM	43.7 µM	25.7 µM	70.4 µM
Cc1cccc2c(Nc3ccc(NS(C)(=O)=O)cc3)c3ccc([N+](=O)[O-])cc3nc12	0.87 µM	3.23	0.808 µM	3.4	0.253 µM	4.4	0.29 µM	7.21 µM	8.3 µM	47.1 µM	0.954 µM	3.65	1.3 µM	6.42	1.03 µM	3.79 µM	0.703 µM	3.81 µM	3.16 µM	17.5 µM
C[C@@H]1COCCN1c1cc(-c2ccnn2C)c2ccnc(-c3ccn[nH]3)c2n1	0.259 µM and 0.603 µM	> 100	0.0291 µM and 0.0471 µM		0.0992 µM and 0.202 µM	> 100	0.057 µM and 0.11 µM	0.648 µM and 1.15 µM	0.101 µM and 0.28 µM	2.43 µM and 4.78 µM	0.0715 µM and 0.195 µM		0.17 µM and 0.415 µM		0.28 µM and 0.573 µM	5.7 µM and > 23.4 µM	0.0212 µM and 0.0373 µM	0.0838 µM and 0.226 µM	0.0715 µM and 0.313 µM	1.57 µM and 7 µM
CCN(C(=O)CN1CCN(c2cc3c(cc2F)c(=O)c(C(=O)O)cn3CC)CC1)c1nc(-c2ccccc2)cs1	0.412 µM	> 100	0.363 µM	> 100	0.453 µM	> 100	0.235 µM	0.746 µM	0.331 µM	> 100 µM	0.419 µM	> 100	0.364 µM	> 100	0.226 µM	0.568 µM	0.244 µM	0.917 µM	0.408 µM	> 100 µM
CCN(CC)C(=O)COc1cc2c(O)c3c(O)c(C)c4c(c13)C(=O)C(C)(OC=CC(OC)C(C)C(OC(C)=O)C(C)C(O)C(C)C(O)C(C)C=CC=C(C)C(=O)N2)O4 (centres undefined)		> 100		> 100		> 100		> 100 µM		> 100 µM		> 100		> 100				> 100 µM		> 100 µM
O=C1/C(=C/c2cccc(Br)c2)COc2ccc(O)c(O)c21	1.06 µM	3.52	1.6 µM	3.47	1.42 µM	2.99	2.75 µM	7.39 µM	2.03 µM	10.3 µM	0.996 µM	2.68	1.06 µM	2.86	1.54 µM	3 µM	2.01 µM	4.74 µM	1.7 µM	3.1 µM
COc1cc(C2CC(=O)Nc3c2cc(Br)c2ccccc32)cc(Br)c1OC (centres undefined)	0.53 µM	> 100	1.08 µM	> 100	6.38 µM	> 100	1.47 µM	5.4 µM	0.398 µM	2.63 µM	2.61 µM	> 63.9	1.74 µM	> 100	2.06 µM	> 100 µM	1 µM	3.29 µM		
COc1ccc2c(c1)/C(=C\c1c[nH]c3ccc(OC)cc13)C(=O)N2	2.77 µM	11	1.91 µM	6.14	4.72 µM	16.4	3.67 µM	16.8 µM	2.65 µM	8.25 µM	3.66 µM	17.1			2.89 µM	9.84 µM	1.82 µM	6.47 µM	3.68 µM	13.3 µM
CC1(C)CC2=C(Sc3ccccc3N2)C(=O)C1C(=O)C(=O)Nc1cc(Cl)ccc1Cl (centres undefined)		> 100		> 100		> 100		> 100 µM		> 100 µM		> 100		> 100		> 100 µM		> 100 µM		
Clc1ccccc1NN(Cc1ccncc1)c1ccccc1Cl		35.1		35.7		34.8		31.6 µM		32 µM		27.7		29.3		32 µM		33.7 µM		
NC(=O)c1cccc(-c2cc(C(N)=O)ccc2Cl)c1	2.14 µM	> 100			3.78 µM	> 100	2.41 µM	21.2 µM	1.51 µM	25.9 µM	4.21 µM	> 100	4.32 µM	> 100	3.21 µM	> 100 µM	3.03 µM	15.3 µM	9.12 µM	> 100 µM
CCOC(=O)C1=C(C)N2C(=NC3=C(CCC/C3=C\c3ccc(Cl)cc3)C2c2ccc(Cl)cc2)S1 (centres undefined)	2.44 µM	6.39			3.92 µM	17.6	2.85 µM	8.76 µM	2.56 µM	7.04 µM	3.11 µM	10.1	3.24 µM	31	2.44 µM	4.65 µM	1.37 µM	3.09 µM	5.23 µM	65.9 µM
O=c1c(-c2ccccc2)coc2cc(OC/C(=N/O)c3ccc(F)cc3)ccc12	17.1 µM	33.4	17.5 µM	41.3	17.4 µM	36	25.5 µM	82.4 µM	23.9 µM	62.3 µM	19.9 µM	> 100	16.9 µM	43.4	18.9 µM	50.7 µM			16.9 µM	39.5 µM
